Experimental data from patent publication US9586951B2 (FUJIFILM Corporation, priority 2013, dated 2017).

Legend:
[1] = biological target: T1, ATM (Homo sapiens, UniProt Q13315); assay: ATM inhibition test (phosphorylation of Chk2 generated by ionizing radiation, AlphaScreen SureFire); assay type: cell-based; details: phosphorylated Chk2 in NCI-H460 cells, ionizing radiation 8Gy, 1 hour after test compound treatment; read-out: ATM inhibitory activity
T1 construct: detecting phosphorylation of Chk2 in a human non-small cell lung cancer cell line NCI-H460 (ATCC company); host or cells: NCI-H460 human non-small cell lung cancer cells
Method in brief: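 NCI-H460 cells, compound 1 h pre-treatment, 8Gy IR, further 1 h at 37° C in 5% CO2. Read-out: phospho-Chk2 via AlphaScreen SureFire. % inhibition relative to IR-induced signal window (irradiated vs non-irradiated drug-free wells).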

[2] = tested on: human non-small cell lung cancer cell line NCI-H460; assay: Cell proliferation inhibition test by sensitivity-enhancing to ionizing radiation (Cell Titer Glo); assay type: cell-based; details: concentration in which SER became 2, NCI-H460 cells, ionizing radiation 2 Gy, cultured 120 hour
Method in brief: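 Radiosensitisation measured as SER, a ratio of Cell Titer Glo luminescence in irradiated vs unirradiated plates relative to DMSO; SER2, the concentration yielding SER 2, came from sigmoidal regression. Compound (0.1% DMSO) was given 24 h post-seeding, 2 Gy applied 30 min later, then 120 hour culture at 37° C.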

T1 sequence (Q13315 whole entry): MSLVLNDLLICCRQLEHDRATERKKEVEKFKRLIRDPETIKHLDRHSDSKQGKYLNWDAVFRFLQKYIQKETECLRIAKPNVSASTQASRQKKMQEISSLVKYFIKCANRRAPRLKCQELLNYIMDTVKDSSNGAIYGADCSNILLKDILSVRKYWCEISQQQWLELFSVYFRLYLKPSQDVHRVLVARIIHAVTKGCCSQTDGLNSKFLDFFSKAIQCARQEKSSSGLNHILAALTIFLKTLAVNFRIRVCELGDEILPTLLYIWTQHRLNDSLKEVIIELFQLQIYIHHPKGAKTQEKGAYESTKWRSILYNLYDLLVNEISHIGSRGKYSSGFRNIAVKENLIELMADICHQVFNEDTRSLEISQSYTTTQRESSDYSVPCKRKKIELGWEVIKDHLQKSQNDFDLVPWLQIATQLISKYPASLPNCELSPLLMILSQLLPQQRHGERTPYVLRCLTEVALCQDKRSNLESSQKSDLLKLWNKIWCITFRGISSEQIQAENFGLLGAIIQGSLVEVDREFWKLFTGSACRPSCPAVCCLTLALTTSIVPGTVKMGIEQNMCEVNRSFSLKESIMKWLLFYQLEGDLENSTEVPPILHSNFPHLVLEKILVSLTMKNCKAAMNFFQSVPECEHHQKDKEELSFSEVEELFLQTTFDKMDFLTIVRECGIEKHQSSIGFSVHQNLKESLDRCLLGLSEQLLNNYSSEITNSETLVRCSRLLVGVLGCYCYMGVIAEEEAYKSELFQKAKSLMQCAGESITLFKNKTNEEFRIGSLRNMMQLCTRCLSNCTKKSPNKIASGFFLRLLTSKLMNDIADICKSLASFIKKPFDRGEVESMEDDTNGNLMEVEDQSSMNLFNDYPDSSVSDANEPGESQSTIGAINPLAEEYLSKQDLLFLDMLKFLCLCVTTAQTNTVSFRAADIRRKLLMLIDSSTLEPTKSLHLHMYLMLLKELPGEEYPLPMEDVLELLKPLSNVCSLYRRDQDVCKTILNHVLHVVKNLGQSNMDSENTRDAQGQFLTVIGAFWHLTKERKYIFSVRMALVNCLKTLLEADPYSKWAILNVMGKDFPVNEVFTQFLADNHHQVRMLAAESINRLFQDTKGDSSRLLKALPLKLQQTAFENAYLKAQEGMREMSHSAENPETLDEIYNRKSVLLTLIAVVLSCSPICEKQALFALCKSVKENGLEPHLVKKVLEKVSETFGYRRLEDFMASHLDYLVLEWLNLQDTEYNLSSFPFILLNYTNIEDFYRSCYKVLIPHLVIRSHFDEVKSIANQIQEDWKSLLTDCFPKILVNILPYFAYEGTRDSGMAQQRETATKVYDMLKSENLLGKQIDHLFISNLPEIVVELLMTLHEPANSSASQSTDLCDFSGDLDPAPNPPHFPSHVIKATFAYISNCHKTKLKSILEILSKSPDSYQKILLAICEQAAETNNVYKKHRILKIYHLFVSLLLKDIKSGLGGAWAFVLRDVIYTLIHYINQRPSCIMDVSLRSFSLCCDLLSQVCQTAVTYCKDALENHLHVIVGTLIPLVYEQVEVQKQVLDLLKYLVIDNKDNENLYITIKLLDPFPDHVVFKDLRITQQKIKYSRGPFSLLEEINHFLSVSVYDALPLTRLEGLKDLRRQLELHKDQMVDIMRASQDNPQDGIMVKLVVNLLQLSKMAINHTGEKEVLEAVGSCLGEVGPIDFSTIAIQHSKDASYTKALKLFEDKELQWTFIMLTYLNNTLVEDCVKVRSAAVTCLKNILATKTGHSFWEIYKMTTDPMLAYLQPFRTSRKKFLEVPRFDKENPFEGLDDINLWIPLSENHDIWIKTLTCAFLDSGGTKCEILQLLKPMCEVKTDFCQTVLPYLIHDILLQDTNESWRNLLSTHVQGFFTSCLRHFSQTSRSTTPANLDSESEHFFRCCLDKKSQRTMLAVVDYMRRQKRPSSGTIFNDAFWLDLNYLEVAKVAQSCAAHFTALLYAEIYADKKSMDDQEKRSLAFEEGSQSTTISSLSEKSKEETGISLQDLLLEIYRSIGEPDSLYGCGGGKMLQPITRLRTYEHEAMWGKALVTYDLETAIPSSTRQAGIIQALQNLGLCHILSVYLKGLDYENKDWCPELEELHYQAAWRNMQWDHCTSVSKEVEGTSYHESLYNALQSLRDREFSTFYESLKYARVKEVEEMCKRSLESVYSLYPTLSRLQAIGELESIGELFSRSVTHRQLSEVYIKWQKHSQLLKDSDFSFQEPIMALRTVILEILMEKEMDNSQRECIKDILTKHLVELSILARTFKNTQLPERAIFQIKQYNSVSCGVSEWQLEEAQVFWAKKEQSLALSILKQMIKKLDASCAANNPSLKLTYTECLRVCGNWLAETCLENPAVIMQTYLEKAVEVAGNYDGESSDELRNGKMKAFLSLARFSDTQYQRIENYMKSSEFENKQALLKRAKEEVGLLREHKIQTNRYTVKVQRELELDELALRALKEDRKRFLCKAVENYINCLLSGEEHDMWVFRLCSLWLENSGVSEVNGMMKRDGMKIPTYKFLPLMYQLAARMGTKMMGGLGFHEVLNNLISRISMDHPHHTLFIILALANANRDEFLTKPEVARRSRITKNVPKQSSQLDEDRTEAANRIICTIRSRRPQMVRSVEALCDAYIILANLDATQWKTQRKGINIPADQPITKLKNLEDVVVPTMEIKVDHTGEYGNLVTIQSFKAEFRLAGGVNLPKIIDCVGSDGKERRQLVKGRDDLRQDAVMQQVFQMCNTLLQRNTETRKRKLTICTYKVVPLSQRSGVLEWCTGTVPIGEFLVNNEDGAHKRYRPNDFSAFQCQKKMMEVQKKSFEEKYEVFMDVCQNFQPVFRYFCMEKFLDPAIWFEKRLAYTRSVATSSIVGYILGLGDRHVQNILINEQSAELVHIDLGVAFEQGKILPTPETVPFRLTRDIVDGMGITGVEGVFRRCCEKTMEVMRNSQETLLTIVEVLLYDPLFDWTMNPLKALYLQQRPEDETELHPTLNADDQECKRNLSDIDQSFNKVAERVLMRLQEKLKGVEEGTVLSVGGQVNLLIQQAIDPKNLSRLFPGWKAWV

Structure (SMILES)	IC50 [1] [nM]	SER2 (concentration at which the radiation sensitivity-enhancement ratio reaches 2) ([2]; Homo sapiens, NCI-H460, 120 h) [nM]	SER2 (concentration at which the radiation sensitivity-enhancement ratio reaches 2) [2] [nM]
Cc1ccc(C(Nc2ccc3c(c2)Sc2cccc(-c4cc(N5CCOCC5)cc(=O)[nH]4)c2S3)C2CCN(C)CC2)nc1 (stereo not shown) [Example 1-35, 6-(7-(((1-methylpiperidin-4-yl)(5-methylpyridin-2-yl)methyl)amino)thianthren-1-yl)-4-morpholinopyridin-2(1H)-one]	< 100	< 100	
Cc1ccc(CNc2ccc3c(c2)Cc2cccc(-c4cc(N5CCOCC5)cc(=O)[nH]4)c2O3)nc1 [Example 2-2-41, 6-(7-(((5-Methylpyridin-2-yl)methyl)amino)-9H-xanthen-4-yl)-4-morpholino pyridin-2(1H)-one]	100 to 500	100 to 500	
CC(CN1CCOCC1)Nc1ccc2c(c1)Sc1cccc(-c3cc(N4CCOCC4)cc(=O)[nH]3)c1S2 (racemic) [Example 1-13-2-1, 4-Morpholino-6-(7-((1-morpholinopropan-2-yl)amino)thianthren-1-yl)pyridin-2(1H)-one]	< 100	100 to 500	
COc1ccnc(C(C)Nc2ccc3c(c2)Cc2cccc(-c4cc(N5CCOCC5)cc(=O)[nH]4)c2O3)c1 (single isomer, unassigned) [Example 2-14-86-2, 6-(7-((1-(4-methoxypyridin-2-yl)ethyl)amino)-9H-xanthen-4-yl)-4-morpholinopyridin-2(1H)-one]	< 100	100 to 500	
COc1cnc(C(C)Nc2ccc3c(c2)Cc2cccc(-c4cc(N5CCOCC5)cc(=O)[nH]4)c2O3)cn1 (stereo not shown) [Example 2-14-51, 6-(7-((1-(5-Methoxypyrazin-2-yl)ethyl)amino)-9H-xanthen-4-yl)-4-morpholino pyridin-2(1H)-one]	< 100	100 to 500	
COc1ccnc(CNc2ccc3c(c2)Sc2cccc(-c4cc(N5CCOCC5)cc(=O)[nH]4)c2O3)c1 [Example 4-8-8, 6-(8-(((4-Methoxypyridin-2-yl)methyl)amino)phenoxathiin-4-yl)-4-morpholino pyridin-2 (1H)-one]	< 100	100 to 500	
Cc1ccc(C2(Nc3ccc4c(c3)Sc3cccc(-c5cc(N6CCOCC6)cc(=O)[nH]5)c3S4)CC2)nc1 [Example 1-50-5, 6-(7-((1-(5-Methylpyridin-2-yl)cyclopropyl)amino)thianthren-1-yl)-4-morpholino pyridin-2(1H)-one]	< 100	100 to 500	
N#Cc1ccnc(CNc2ccc3c(c2)Cc2cccc(-c4cc(N5CCOCC5)cc(=O)[nH]4)c2O3)c1 [Example 2-14-11, 2-(((5-(4-Morpholino-6-oxo-1,6-dihydropyridin-2-yl)-9H-xanthen-2-yl)amino)methyl) isonicotinonitrile]	< 100	100 to 500	
CN(C)c1cncc(CNc2ccc3c(c2)Cc2cccc(-c4cc(N5CCOCC5)cc(=O)[nH]4)c2O3)c1 [Example 2-21-7, 6-(7-(((5-(Dimethylamino)pyridin-3-yl)methyl)amino)-9H-xanthen-4-yl)-4-morpholino pyridin-2(1H)-one]	< 100	500 to 2000	
O=c1cc(N2CCOCC2)cc(-c2cccc3c2Sc2ccc(NC4CCN(C5CC5)CC4)cc2S3)[nH]1 [Example 1-24-18, 6-(7-((1-Cyclopropylpiperidin-4-yl)amino)thianthren-1-yl)-4-morpholino pyridin-2(1H)-one]	< 100	100 to 500	
N#Cc1cccc(CNc2ccc3c(c2)Cc2cccc(-c4cc(N5CCOCC5)cc(=O)[nH]4)c2O3)n1 [Example 2-14-13, 6-(((5-(4-Morpholino-6-oxo-1,6-dihydropyridin-2-yl)-9H-xanthen-2-yl)amino)methyl) picolinonitrile]	< 100	100 to 500	
CCOc1cncc(CNc2ccc3c(c2)Cc2cccc(-c4cc(N5CCOCC5)cc(=O)[nH]4)c2O3)c1 [Example 2-2-48, 6-(7-(((5-Ethoxypyridin-3-yl)methyl)amino)-9H-xanthen-4-yl)-4-morpholino pyridin-2(1H)-one]	< 100	500 to 2000	
Cc1cnc(C(C)Nc2ccc3c(c2)Sc2cccc(-c4cc(N5CCOCC5)cc(=O)[nH]4)c2S3)nc1 (stereo not shown) [Example 1-12-70, 6-(7-((1-(5-Methylpyrimidin-2-yl)ethyl)amino)thianthren-1-yl)-4-morpholino pyridin-2(1H)-one]	< 100	< 100	
COc1cc(CNc2ccc3c(c2)Sc2cccc(-c4cc(N5CCOCC5)cc(=O)[nH]4)c2S3)ccn1 [Example 1-44-4, 6-(7-(((2-Methoxypyridin-4-yl)methyl)amino)thianthren-1-yl)-4-morpholino pyridin-2 (1H)-one]	< 100	500 to 2000	
COc1cncc(C(C)Nc2ccc3c(c2)Sc2cccc(-c4cc(N5CCOCC5)cc(=O)[nH]4)c2S3)c1 (stereo not shown) [Example 1-12-9, 6-(7-((1-(5-Methoxypyridin-3-yl)ethyl)amino)thianthren-1-yl)-4-morpholino pyridin-2(1H)-one]	< 100	100 to 500	

More lines, main results first:

IC50 [1] [nM]	Structure (SMILES)	SER2 (concentration at which the radiation sensitivity-enhancement ratio reaches 2) ([2]; Homo sapiens, NCI-H460, 120 h) [nM]	SER2 (concentration at which the radiation sensitivity-enhancement ratio reaches 2) [2] [nM]
< 100	Cc1cccc(C(CCN(C)C)Nc2ccc3c(c2)Sc2cccc(-c4cc(N5CCOCC5)cc(=O)[nH]4)c2S3)n1 (single isomer, unassigned) [Example 1-22-11-1, 6-(7-((3-(dimethylamino)-1-(6-methylpyridin-2-yl)propyl)amino)thianthren-1-yl)-4-morpholinopyridin-2(1H)-one]	100 to 500	
< 100	Cc1cnc(C(C)Nc2ccc3c(c2)Sc2cccc(-c4cc(N5CCOCC5)cc(=O)[nH]4)c2S3)cn1 (stereo not shown) [Example 1-12-64, 6-(7-((1-(5-Methylpyrazin-2-yl)ethyl)amino)thianthren-1-yl)-4-morpholino pyridin-2(1H)-one]	< 100	
< 100	CCN(C)CCC(Nc1ccc2c(c1)Sc1cccc(-c3cc(N4CCOCC4)cc(=O)[nH]3)c1S2)c1cnc(C)cn1 (stereo not shown) [Example 1-23-2, 6-(7-((3-(Ethyl(methyl)amino)-1-(5-methylpyrazin-2-yl)propyl)amino)thianthren-1-yl)-4-morpholinopyridin-2(1H)-one]	100 to 500	
< 100	Cc1cnc(C(C)Nc2ccc3c(c2)Sc2cccc(-c4cc(N5CCOCC5)cc(=O)[nH]4)c2S3)cn1 (single isomer, unassigned) [Example 1-12-137-2, 6-(7-((1-(5-methylpyrazin-2-yl)ethyl)amino)thianthren-1-yl)-4-morpholinopyridin-2(1H)-one]		100 to 500
< 100	Cc1cccc(C(Nc2ccc3c(c2)Sc2cccc(-c4cc(N5CCOCC5)cc(=O)[nH]4)c2S3)C2CCCN(C)C2)n1 (single isomer, unassigned) [Example 1-22-5, 6-(7-(((1-Methylpiperidin-3-yl)(6-methylpyridin-2-yl)methyl)amino)thianthren-1-yl)-4-morpholino pyridin-2 (1H)-one]		100 to 500
< 100	COCCCC(Nc1ccc2c(c1)Sc1cccc(-c3cc(N4CCOCC4)cc(=O)[nH]3)c1S2)c1ccc(C)cn1 (stereo not shown) [Example 1-12-130, 6-(7-((4-Methoxy-1-(5-methylpyridin-2-yl)butyl)amino)thianthren-1-yl)-4-morpholino pyridin-2(1H)-one]	100 to 500	
< 100	Cc1ccnc(C(CO)Nc2ccc3c(c2)Sc2cccc(-c4cc(N5CCOCC5)cc(=O)[nH]4)c2S3)n1 (stereo not shown) [Example 1-12-90, 6-(7-((2-Hydroxy-1-(4-methylpyrimidin-2-yl)ethyl)amino)thianthren-1-yl)-4-morpholino pyridin-2(1H)-one]	100 to 500	
< 100	Cc1ccnc(CNc2ccc3c(c2)Sc2cccc(-c4cc(N5CCOCC5)cc(=O)[nH]4)c2S3)c1 [Example 1-12-5, 6-(7-(((4-Methylpyridin-2-yl)methyl)amino)thianthren-1-yl)-4-morpholino pyridin-2 (1H)-one]	100 to 500	
< 100	Cc1ccc(C(C)(C)Nc2ccc3c(c2)Sc2cccc(-c4cc(N5CCOCC5)cc(=O)[nH]4)c2S3)nc1 [Example 1-50-2, 6-(7-((2-(5-Methylpyridin-2-yl)propan-2-yl)amino)thianthren-1-yl)-4-morpholino pyridin-2(1H)-one]	100 to 500	
< 100	COCC(Nc1ccc2c(c1)Sc1cccc(-c3cc(N4CCOCC4)cc(=O)[nH]3)c1S2)c1ncc(C)cn1 (stereo not shown) [Example 1-12-96, 6-(7-((2-Methoxy-1-(5-methylpyrimidin-2-yl)ethyl)amino)thianthren-1-yl)-4-morpholino pyridin-2(1H)-one]	100 to 500	
< 100	Cc1ccnc(C(CF)Nc2ccc3c(c2)Sc2cccc(-c4cc(N5CCOCC5)cc(=O)[nH]4)c2S3)n1 (stereo not shown) [Example 1-12-89, 6-(7-((2-Fluoro-1-(4-methylpyrimidin-2-yl)ethyl)amino)thianthren-1-yl)-4-morpholino pyridin-2(1H)-one]	100 to 500	
